ChEMBL document CHEMBL3351894, “Development and evaluation of ST-1829 based on 5-benzylidene-2-phenylthiazolones as promising agent for anti-leukotriene therapy” (Eur J Med Chem, 2015)
Values after ≈ are worked out from the molar mass of the structure shown. Active and inactive are the calls of the source. The rule behind the calls is not given here.

Legend:
[1] = molecular target: T1, Polyunsaturated fatty acid 5-lipoxygenase (Homo sapiens, UniProt P09917); test: Inhibition of 5-LO in human PMNL using arachidonic acid as substrate assessed as product formation incubated for 15 mins prior to substrate addition measured after 10 mins by HPLC analysis
T1 sequence (P09917 whole entry): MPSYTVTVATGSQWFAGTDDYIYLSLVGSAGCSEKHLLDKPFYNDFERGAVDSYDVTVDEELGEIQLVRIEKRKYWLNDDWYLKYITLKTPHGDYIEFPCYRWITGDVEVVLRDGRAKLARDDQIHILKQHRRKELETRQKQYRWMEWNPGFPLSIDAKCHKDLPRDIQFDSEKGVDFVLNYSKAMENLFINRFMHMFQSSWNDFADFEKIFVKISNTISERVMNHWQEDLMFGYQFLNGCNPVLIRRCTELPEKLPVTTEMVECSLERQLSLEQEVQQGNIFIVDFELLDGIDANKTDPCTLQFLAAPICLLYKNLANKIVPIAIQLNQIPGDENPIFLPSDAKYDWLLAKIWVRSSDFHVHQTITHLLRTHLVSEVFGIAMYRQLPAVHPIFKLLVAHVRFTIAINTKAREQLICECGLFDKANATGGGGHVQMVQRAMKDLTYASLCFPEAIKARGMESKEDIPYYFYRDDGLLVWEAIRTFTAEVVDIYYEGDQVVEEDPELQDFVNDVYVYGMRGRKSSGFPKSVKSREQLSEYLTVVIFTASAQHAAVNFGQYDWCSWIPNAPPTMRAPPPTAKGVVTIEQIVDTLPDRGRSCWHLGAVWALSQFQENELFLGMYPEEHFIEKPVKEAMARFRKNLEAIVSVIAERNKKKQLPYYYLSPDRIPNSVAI

[2] = molecular target: T1, Polyunsaturated fatty acid 5-lipoxygenase; test: Inhibition of 5-LO in human PMNL S100 extract using arachidonic acid as substrate incubated for 15 mins prior to substrate addition measured after 10 mins by HPLC analysis
[3] = Solubility of the compound in PBS at pH 7.4 at RT; type: physicochemical
[4] = Solubility of the compound in DMSO at RT; type: physicochemical
[5] = Cytotoxicity against human U937 cells assessed as cell viability at 100 uM after 48 hrs by WST-1 assay; type: cell-based, U-937; conditions: read-out: Activity
[6] = Cytotoxicity against human U937 cells at 100 uM after 48 hrs by LDH assay; type: cell-based; conditions: u-937, 48 h
[7] = molecular target: T2, Polyunsaturated fatty acid 5-lipoxygenase (Homo sapiens) (UniProt P09917); conditions: 0.01 to 1 uM
T2 sequence (whole entry): T1 sequence (P09917 whole entry)
Description: Inhibition of 5-LO in human PMNL using arachidonic acid as substrate assessed as product formation at 0.01 to 1 uM incubated for 15 mins prior to substrate addition measured after 10 mins by HPLC analysis in presence of 10% fetal calf serum

[8] = Cytotoxicity against human U937 cells assessed as cell viability after 48 hrs by WST-1 assay; type: cell-based; conditions: U-937, 48 h
[9] = Cytotoxicity against human U937 cells at 30 uM after 48 hrs by LDH assay; type: cell-based; conditions: u-937, 48 h
[10] = molecular target: T2, Polyunsaturated fatty acid 5-lipoxygenase (Homo sapiens); test: Reversible inhibition of 5-LO in human PMNL using arachidonic acid as substrate assessed as product formation incubated for 15 mins followed by compound washout measured after 10 mins by HPLC analysis
[11] = molecular target: T2, Polyunsaturated fatty acid 5-lipoxygenase (Homo sapiens); test: Inhibition of 5-LO in human PMNL using arachidonic acid as substrate assessed as product formation at 1 to 10 uM incubated for 15 mins prior to substrate addition measured after 10 mins by HPLC analysis in presence of 10% fetal calf serum

IC50 [1] [µM]	IC50 [2] [µM]	Structure (SMILES)	further results
> 30	4.62	COc1ccc(/C=C2\SC(c3ccc[n+](C)c3)=NC2=O)cc1	
0.69	0.16	COC(=O)c1ccc(/C=C2\SC(c3ccc(C)cc3)=NC2=O)cc1	
8.36	1.46	Cc1ccc(C2=NC(=O)/C(=C/c3ccc(C(=O)O)cc3)S2)cc1	
2.87	0.3	COc1ccc(/C=C2\SC(c3cnccn3)=NC2=O)cc1	
2.66	0.96	COc1ccc(/C=C2\SC(c3cccnc3)=NC2=O)cc1	
3.61	0.18	COC(=O)/C=C/c1ccc(/C=C2\SC(c3ccc(C)cc3)=NC2=O)cc1	
10.3	11.8	COc1ccc(/C=C2\C=C(c3ccc(C)cc3)NC2=O)cc1	
0.28	0.08	COc1ccc(/C=C2/SC(c3ccc(Cl)cc3)=NC2=O)cc1	solubility [3]: 0.03 mM (≈ 9.89 µg/mL); solubility [4]: 15 mM (≈ 4950 µg/mL)
1.13	0.33	Cc1ccc(C2=NC(=O)/C(=C/c3ccc(O)cc3)S2)cc1	solubility [3]: 0.03 mM (≈ 8.86 µg/mL); solubility [4]: 50 mM (≈ 14800 µg/mL)
1.95	7.8	COc1ccc(/C=C2\N=C(c3ccc(C)cc3)NC2=O)cc1	
> 30	> 30	COc1ccc(/C=C2\N=C(c3ccc(C)cc3)OC2=O)cc1	
0.22	0.35	COc1ccc(/C=C/C=C2\SC(c3ccc(C)cc3)=NC2=O)cc1	
2.19	0.33	Cc1ccc(C2=NC(=O)/C(=C/c3ccncc3)S2)cc1	
10.3	8.22	COc1ccc(/N=C2\SC(c3ccc(C)cc3)=NC2=O)cc1	
> 30	> 30	COc1ccc(/C=C2/SC(=S)N(c3ccc(C)cc3)C2=O)cc1	
0.58	0.16	CC(=O)c1ccc(/C=C2\SC(c3ccc(C)cc3)=NC2=O)cc1	
2.99	0.44	COc1ccc(/C=C2\SC(c3ccncc3)=NC2=O)cc1	
0.12	0.08	COc1ccc(/C=C2/SC(c3cccc4ccccc34)=NC2=O)cc1	solubility [3]: 0.03 mM (≈ 10.4 µg/mL); solubility [4]: 10 mM (≈ 3450 µg/mL)
0.74	0.33	Cc1ccc(C2=NC(=O)/C(=C/c3ccc(OC(=O)N4CCOCC4)cc3)S2)cc1	solubility [3]: 0.05 mM (≈ 20.4 µg/mL); solubility [4]: 10 mM (≈ 4080 µg/mL)
5.29	0.19	Cc1ccc(C2=NC(=O)/C(=C/c3ccc(S(C)(=O)=O)cc3)S2)cc1	
1.33	0.58	Cc1ccc(C2=NC(=O)/C(=C/c3ccc(N)cc3)S2)cc1	
10.5	1.86	COc1ccc(/C=C2\OC(c3ccc(C)cc3)=NC2=O)cc1	
2.33	0.52	Cc1ccc(C2=NC(=O)/C(=C/c3ccc(OCCN4CCOCC4)cc3)S2)cc1	solubility [3]: 0.03 mM (≈ 12.3 µg/mL); solubility [4]: 10 mM (≈ 4090 µg/mL)
0.01	0.05	COc1ccc(-c2sc(-c3ccc(Cl)cc3)nc2O)cc1	solubility [3]: 0.05 mM (≈ 15.9 µg/mL); inhibition [7]: Active; IC50 [8]: > 30 µM; Activity [9]: Non-toxic; solubility [4]: 50 mM (≈ 15900 µg/mL)

Further lines, the compound ahead of its results:

Structure (SMILES)	IC50 [1] [µM]	IC50 [2] [µM]	further results
Cc1ccc(C2=NC(=O)/C(=C/c3ncc[nH]3)S2)cc1	6.09	2.69	
Cc1ccc(-c2nc(O)c(C=C3CCCCC3)s2)cc1	0.79	0.35	
Cc1ccc(C2=NC(=O)/C(=C/c3c[nH]c4ccccc34)S2)cc1	1.07	> 3	
COc1ccc(/C=C2\SC(c3ccc(C)cc3)N(C)C2=O)cc1 (stereo unspecified)	0.94	> 30	
CCCCCC(O)c1cccc(OCc2ccc3ccccc3n2)c1 (stereo unspecified) [REV-5901]			viability at 48 h, 100 µM [5]: < 1%; Activity [6]: 22.5%
COc1ccc(/C=C2\S/C(=N/c3ccc(C)cc3)NC2=O)cc1	2.9	> 30	
Cc1ccc(C2=NC(=O)/C(=C/c3cccnc3)S2)cc1	1.24	0.28	
COc1ccc(-c2sc(-c3ccc(C)cc3)nc2C)cc1	1.5	> 30	
COC1CCC(=Cc2sc(-c3ccc(C)cc3)nc2O)CC1 (stereo unspecified)	1.56	0.59	
COc1ccc(-c2sc(-c3ccc(C)cc3)nc2O)cc1	0.43	0.17	solubility [3]: 0.05 mM (≈ 14.9 µg/mL); solubility [4]: 50 mM (≈ 14900 µg/mL)
COc1ccc(Cc2sc(-c3ccc(C)cc3)nc2O)cc1	0.72	0.2	solubility [3]: 0.08 mM (≈ 24.9 µg/mL); solubility [4]: 100 mM (≈ 31100 µg/mL)
COc1ccc(/C=C2\C=C(c3ccc(C)cc3)OC2=O)cc1	> 30	> 30	
Cc1ccc(C2=NC(=O)/C(=C/c3ccc[nH]3)S2)cc1	1.58	8.02	
CC(c1cc2ccccc2s1)N(O)C(N)=O (stereo unspecified) [ZILEUTON]			viability at 48 h, 100 µM [5]: 86.5%; Activity [6]: 1.5%
COc1ccc(C(=C2SC(c3ccc(C)cc3)=NC2=O)c2ccc(OC)cc2)cc1	8.55	6.15	
Cc1ccc(C2=NC(=O)/C(=C/c3cccs3)S2)cc1	0.98	0.86	
Cc1ccc(C2=NC(=O)/C(=C/c3ccc(N4CCOCC4)cc3)S2)cc1	3.65	1.07	solubility [3]: 0.01 mM (≈ 3.64 µg/mL); solubility [4]: 10 mM (≈ 3640 µg/mL)
Cc1ccc(C2=NC(=O)/C(=C/C34CC5CC(CC(C5)C3)C4)S2)cc1	0.41	0.12	
Cc1ccc(C2=NC(=O)/C(=C/c3[nH]cnc3C)S2)cc1	14.9	6.04	
COc1ccc(/C=C2\SC(c3ccc(C)cc3)=NC2=O)cc1			solubility [3]: 0.03 mM (≈ 9.28 µg/mL); inhibition [10]: Active; inhibition [11]: inactive; solubility [4]: 10 mM (≈ 3090 µg/mL)
COc1ccc(NC2(OC)SC(c3ccc(C)cc3)=NC2=O)cc1 (stereo unspecified)	> 30	> 30	
Cc1ccc(C2=NC(=O)/C(=C/c3cccc(S(N)(=O)=O)c3)S2)cc1	1.44	0.25	solubility [3]: 0.08 mM (≈ 28.7 µg/mL); solubility [4]: 30 mM (≈ 10800 µg/mL)
Cc1ccc(C2=NC(=O)/C(=C/c3ccc(OCC(=O)N4CCOCC4)cc3)S2)cc1	1.66	0.73	solubility [3]: 0.05 mM (≈ 21.1 µg/mL); solubility [4]: 20 mM (≈ 8450 µg/mL)
